Key:
[1] = tested on: Felis catus; test: Effect of intraperitoneal infusion on respiration frequency in Anesthetized cats at a dose of 200 mg/kg at 15 min; assay type: functional
[2] = tested on: Felis catus; test: Effect of intravenous infusion on systolic pressure in Anesthetized cats at a dose of 0.15 mg/kg at 1 min; assay type: functional
[3] = species: Cavia porcellus; test: Chronotropic activity on left and right guinea pig artia (beats/min), at 120 min; assay type: functional
[4] = species: Cavia porcellus; test: Effect on guinea pig artia (beats/min), at the a dose of 0 M; assay type: functional
[5] = tested on: Felis catus; test: Effect of intravenous infusion on diastolic pressure in Anesthetized cats at a dose of 0 mg/kg at 0 min; assay type: functional
[6] = species: Cavia porcellus; test: Chronotropic activity on left and right guinea pig artia (beats/min), at 15 min; assay type: functional
[7] = tested on: Felis catus; test: Effect of intravenous infusion on diastolic pressure in Anesthetized cats at a dose of 0.15 mg/kg at 1 min; assay type: functional
[8] = species: Cavia porcellus; test: Chronotropic activity on left and right guinea pig artia (beats/min), at 150 min; assay type: functional
[9] = tested on: Felis catus; test: Effect of intraperitoneal infusion on respiration frequency in Anesthetized cats at a dose of 200 mg/kg at 90 min; assay type: functional
[10] = tested on: Felis catus; test: Effect of intraperitoneal infusion on respiration frequency in Anesthetized cats at a dose of 200 mg/kg at 60 min; assay type: functional
[11] = tested on: Felis catus; test: Effect of intravenous infusion on cardiac frequency in Anesthetized cats at a dose of 0.00 mg/kg at 0 min; assay type: functional, Heart
[12] = tested on: Felis catus; test: Effect of intraperitoneal infusion of compound on cardiac frequency in Anesthetized cats at a dose of 200 mg/kg at 105 min; assay type: functional, Heart
[13] = species: Cavia porcellus; test: Chronotropic activity on left and right guinea pig artia (beats/min), at 0 min; assay type: functional
[14] = tested on: Felis catus; test: Effect of intravenous infusion on systolic pressure in Anesthetized cats at a dose of 0.30 mg/kg at 2 min; assay type: functional; details: dose 0.3 mg/kg
[15] = tested on: Felis catus; test: Effect of intraperitoneal infusion on systolic pressure in Anesthetized cats at a dose of 200 mg/kg at 90 min; assay type: functional
[16] = species: Cavia porcellus; test: Effect on guinea pig artia (beats/min), at the a dose of 10e-9 M; assay type: functional
[17] = tested on: Felis catus; test: Effect of intravenous infusion on diastolic pressure in Anesthetized cats at a dose of 2.25 mg/kg at 15 min; assay type: functional
[18] = tested on: Felis catus; test: Effect of intraperitoneal infusion on diastolic pressure in Anesthetized cats at a dose of 200 mg/kg at 60 min; assay type: functional
[19] = tested on: Felis catus; test: Effect of intraperitoneal infusion on diastolic pressure in Anesthetized cats at a dose of 200 mg/kg at 45 min; assay type: functional
[20] = tested on: Felis catus; test: Effect of intraperitoneal infusion on respiration frequency in Anesthetized cats at a dose of 200 mg/kg at 0 min; assay type: functional
[21] = tested on: Felis catus; test: Effect of intraperitoneal infusion on systolic pressure in Anesthetized cats at a dose of 200 mg/kg at 150 min; assay type: functional
[22] = tested on: Felis catus; test: Effect of intraperitoneal infusion of compound on cardiac frequency in Anesthetized cats at a dose of 200 mg/kg at 0 min; assay type: functional, Heart
[23] = tested on: Felis catus; test: Effect of intraperitoneal infusion of compound on cardiac frequency in Anesthetized cats at a dose of 200 mg/kg at 45 min; assay type: functional, Heart
[24] = tested on: Felis catus; test: Effect of intraperitoneal infusion on diastolic pressure in Anesthetized cats at a dose of 200 mg/kg at 0 min; assay type: functional
[25] = tested on: Felis catus; test: Effect of intraperitoneal infusion of compound on cardiac frequency in Anesthetized cats at a dose of 200 mg/kg at 165 min; assay type: functional, Heart
[26] = species: Cavia porcellus; test: Effect on guinea pig artia (beats/min), at the a dose of 10e-8 M; assay type: functional
[27] = tested on: Felis catus; test: Effect of intravenous infusion on cardiac frequency in Anesthetized cats at a dose of 0.15 mg/kg at 1 min; assay type: functional, Heart
[28] = species: Oryctolagus cuniculus; test: Effect on 35 mM K+-induced contraction on rabbit aorta at a dose of 3*10e-7 mol/L; assay type: functional
[29] = species: Cavia porcellus; test: Chronotropic activity on left and right guinea pig artia (beats/min), at 75 min; assay type: functional
[30] = tested on: Felis catus; test: Effect of intraperitoneal infusion on diastolic pressure in Anesthetized cats at a dose of 200 mg/kg at 90 min; assay type: functional
[31] = tested on: Felis catus; test: Effect of intraperitoneal infusion on respiration frequency in Anesthetized cats at a dose of 200 mg/kg at 18 0 min; assay type: functional
[32] = species: Cavia porcellus; test: Chronotropic activity on left and right guinea pig artia (beats/min), at 90 min; assay type: functional
[33] = tested on: Felis catus; test: Effect of intraperitoneal infusion on systolic pressure in Anesthetized cats at a dose of 200 mg/kg at 135 min; assay type: functional
[34] = species: Cavia porcellus; test: Effect on guinea pig artia (beats/min), at the a dose of 10e-7 M; assay type: functional
[35] = tested on: Felis catus; test: Effect of intraperitoneal infusion on diastolic pressure in Anesthetized cats at a dose of 200 mg/kg at 135 min; assay type: functional
[36] = tested on: Felis catus; test: Effect of intravenous infusion on systolic pressure in Anesthetized cats at a dose of 1.50 mg/kg at 10 min; assay type: functional; details: dose 1.5 mg/kg
[37] = species: Cavia porcellus; test: Chronotropic activity on left and right guinea pig artia (beats/min), at 180 min; assay type: functional
[38] = species: Cavia porcellus; test: Chronotropic activity on left and right guinea pig artia (beats/min), at 45 min; assay type: functional
[39] = tested on: Felis catus; test: Effect of intraperitoneal infusion on diastolic pressure in Anesthetized cats at a dose of 200 mg/kg at 150 min; assay type: functional
[40] = tested on: Felis catus; test: Effect of intravenous infusion on respiration frequency in Anesthetized cats at a dose of 3 mg/kg at 20 min; assay type: functional
[41] = tested on: Felis catus; test: Effect of intravenous infusion on systolic pressure in Anesthetized cats at a dose of 0 mg/kg at 0 min; assay type: functional
[42] = species: Cavia porcellus; test: Chronotropic activity on left and right guinea pig artia (beats/min), at 30 min; assay type: functional
[43] = tested on: Felis catus; test: Effect of intraperitoneal infusion on diastolic pressure in Anesthetized cats at a dose of 200 mg/kg at 180 min; assay type: functional
[44] = tested on: Felis catus; test: Effect of intravenous infusion on diastolic pressure in Anesthetized cats at a dose of 1.50 mg/kg at 10 min; assay type: functional; details: dose 1.5 mg/kg
[45] = species: Oryctolagus cuniculus; test: Effect on 35 mM K+-induced contraction on rabbit aorta at a dose of 10E-6 mol/L; assay type: functional
[46] = tested on: Felis catus; test: Effect of intraperitoneal infusion of compound on cardiac frequency in Anesthetized cats at a dose of 200 mg/kg at 120 min; assay type: functional, Heart
[47] = species: Cavia porcellus; test: Effect on guinea pig artia (beats/min), at the a dose of 10e-6 M; assay type: functional
[48] = tested on: Felis catus; test: Effect of intravenous infusion on respiration frequency in Anesthetized cats at a dose of 1.50 mg/kg at 10 min; assay type: functional; details: dose 1.5 mg/kg

Molecule CCO/C(O)=C1\C(C)=NC(C)=C(C(=O)OCCN2C(=O)c3ccccc3S2(=O)=O)C1C (configuration not stated) has a Respiratory frequency [1] of 14 r.p.m, an Arterial pressure [2] of 165 mmHg and a Beats/min [3] of 131. The Control [3] was 95.6%, the Beats/min [4] was 183 and the Control [4] was 100%. For the same molecule, the Arterial pressure [5] was 115 mmHg, the Beats/min [6] was 138 and the Control [6] was 100.7%. It also gave an Arterial pressure [7] of 115 mmHg, a Beats/min [8] of 129 and a Control [8] of 94.2%. For the same molecule, the Respiratory frequency [9] was 12 r.p.m, the Respiratory frequency [10] was 13 r.p.m and the Cardiac frequency [11] was 190 beats min-1. It also gave a Cardiac frequency [12] of 259 beats min-1, a Beats/min [13] of 137 and a Control [13] of 100%. It also gave an Arterial pressure [14] of 165 mmHg, an Arterial pressure [15] of 138 mmHg and a Beats/min [16] of 193. It also gave a Control [16] of 105.6%, an Arterial pressure [17] of 110 mmHg and an Arterial pressure [18] of 85 mmHg. The Arterial pressure [19] was 85 mmHg, the Respiratory frequency [20] was 14 r.p.m and the Arterial pressure [21] was 140 mmHg. The Cardiac frequency [22] was 260 beats min-1, the Cardiac frequency [23] was 245 beats min-1 and the Arterial pressure [24] was 85 mmHg. For the same molecule, the Cardiac frequency [25] was 278 beats min-1, the Beats/min [26] was 176 and the Control [26] was 96.3%. The Cardiac frequency [27] was 190 beats min-1, the Inhibition [28] was 23.89% and the Beats/min [29] was 134. It also gave a Control [29] of 97.8%, an Arterial pressure [30] of 85 mmHg and a Respiratory frequency [31] of 15 r.p.m. For the same molecule, the Beats/min [32] was 133, the Control [32] was 97.1% and the Arterial pressure [33] was 140 mmHg. It also gave a Beats/min [34] of 181, a Control [34] of 98.6% and an Arterial pressure [35] of 80 mmHg. It also gave an Arterial pressure [36] of 160 mmHg, a Beats/min [37] of 130 and a Control [37] of 94.9%. The Beats/min [38] was 138, the Control [38] was 100.4% and the Arterial pressure [39] was 80 mmHg. It also gave a Respiratory frequency [40] of 18 r.p.m, an Arterial pressure [41] of 165 mmHg and a Beats/min [42] of 138. It also gave a Control [42] of 100.7%, an Arterial pressure [43] of 80 mmHg and an Arterial pressure [44] of 110 mmHg. It also gave an Inhibition [45] of 48.13%, a Cardiac frequency [46] of 261 beats min-1 and a Beats/min [47] of 181. For the same molecule, the Control [47] was 98.5% and the Respiratory frequency [48] was 18 r.p.m.
